Experimental data reported in patent EP4620956A1, “PARP1 INHIBITORS” (Zhejiang Yangli Pharmaceutical Technology Co., Ltd., priority 2022, dated 2024).

What was measured:
PARP7 = molecular target: T1, PARP7 (Homo sapiens, UniProt Q7Z3E1); assay: Inhibition of PARP7 enzyme activity (chemiluminescent assay kit); type: biochemical
T1 construct: purchased BPS 80527
T1 sequence (Q7Z3E1 1-657): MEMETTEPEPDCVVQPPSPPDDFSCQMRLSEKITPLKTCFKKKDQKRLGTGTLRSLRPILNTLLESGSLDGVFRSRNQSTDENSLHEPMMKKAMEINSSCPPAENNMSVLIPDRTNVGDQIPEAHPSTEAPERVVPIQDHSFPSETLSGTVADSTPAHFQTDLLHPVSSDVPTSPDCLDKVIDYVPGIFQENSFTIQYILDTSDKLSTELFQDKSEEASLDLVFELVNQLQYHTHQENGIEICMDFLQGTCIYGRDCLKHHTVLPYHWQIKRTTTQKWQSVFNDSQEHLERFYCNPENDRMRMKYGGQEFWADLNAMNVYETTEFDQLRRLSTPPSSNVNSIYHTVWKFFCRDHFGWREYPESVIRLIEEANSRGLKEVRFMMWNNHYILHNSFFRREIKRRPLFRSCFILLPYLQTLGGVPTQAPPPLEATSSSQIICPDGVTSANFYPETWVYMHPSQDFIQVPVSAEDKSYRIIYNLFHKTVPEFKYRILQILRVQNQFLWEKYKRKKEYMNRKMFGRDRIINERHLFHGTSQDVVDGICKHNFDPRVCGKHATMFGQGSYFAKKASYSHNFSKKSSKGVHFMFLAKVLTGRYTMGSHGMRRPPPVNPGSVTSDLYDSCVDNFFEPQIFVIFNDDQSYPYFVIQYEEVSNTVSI

PARP1 [1] = molecular target: T2, PARP1 (Homo sapiens, UniProt P09874); assay: PARP1-DNA trapping, fluorescence polarization (FP); type: biochemical
T2 construct: purchased BPS 80501
T2 sequence (P09874 whole entry): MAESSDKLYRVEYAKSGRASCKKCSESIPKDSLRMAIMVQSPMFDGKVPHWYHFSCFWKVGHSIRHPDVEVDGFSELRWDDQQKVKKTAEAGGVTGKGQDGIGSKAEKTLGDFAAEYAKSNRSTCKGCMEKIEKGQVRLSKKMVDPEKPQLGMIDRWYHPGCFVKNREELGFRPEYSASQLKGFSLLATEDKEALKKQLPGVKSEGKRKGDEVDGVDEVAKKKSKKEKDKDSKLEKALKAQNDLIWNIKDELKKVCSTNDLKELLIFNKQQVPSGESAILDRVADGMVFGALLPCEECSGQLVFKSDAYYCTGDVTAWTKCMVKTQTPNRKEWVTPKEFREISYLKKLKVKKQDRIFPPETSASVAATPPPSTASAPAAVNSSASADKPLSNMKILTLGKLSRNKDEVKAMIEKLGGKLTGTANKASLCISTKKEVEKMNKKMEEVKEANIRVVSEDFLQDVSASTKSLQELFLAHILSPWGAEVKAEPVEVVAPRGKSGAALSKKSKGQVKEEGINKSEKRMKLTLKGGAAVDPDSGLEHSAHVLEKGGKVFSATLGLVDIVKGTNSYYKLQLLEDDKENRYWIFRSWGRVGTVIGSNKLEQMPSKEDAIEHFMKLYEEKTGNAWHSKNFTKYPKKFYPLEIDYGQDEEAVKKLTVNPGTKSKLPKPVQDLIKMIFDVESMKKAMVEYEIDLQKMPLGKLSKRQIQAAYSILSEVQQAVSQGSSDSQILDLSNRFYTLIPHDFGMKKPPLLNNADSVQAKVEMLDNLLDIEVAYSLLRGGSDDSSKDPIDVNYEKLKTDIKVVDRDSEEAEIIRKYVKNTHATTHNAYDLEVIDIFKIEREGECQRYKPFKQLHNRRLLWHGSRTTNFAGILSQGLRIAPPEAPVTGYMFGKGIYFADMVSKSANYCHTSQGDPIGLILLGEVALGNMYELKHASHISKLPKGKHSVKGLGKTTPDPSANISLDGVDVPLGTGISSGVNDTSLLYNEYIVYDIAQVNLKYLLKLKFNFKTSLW

PARP1 [2] = molecular target: T2, PARP1; assay: Inhibition of PARP1 enzyme activity (chemiluminescence); type: biochemical
PARP5a = molecular target: T3, PARP5a (Homo sapiens, UniProt O95271); assay: Inhibition of PARP5a enzyme activity (chemiluminescence); type: biochemical
T3 construct: purchased BPS 80504
T3 sequence (O95271 1001-1327): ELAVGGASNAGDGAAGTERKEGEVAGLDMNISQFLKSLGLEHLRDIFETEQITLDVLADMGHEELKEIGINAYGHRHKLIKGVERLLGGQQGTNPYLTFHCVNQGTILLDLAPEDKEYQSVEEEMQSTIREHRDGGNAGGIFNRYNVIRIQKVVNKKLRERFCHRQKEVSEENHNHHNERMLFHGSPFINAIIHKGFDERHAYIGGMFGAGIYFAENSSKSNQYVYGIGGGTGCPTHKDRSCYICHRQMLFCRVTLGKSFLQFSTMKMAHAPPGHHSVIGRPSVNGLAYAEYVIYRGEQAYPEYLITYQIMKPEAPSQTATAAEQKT

A549 PARP1-KO cell lines = assay: Cellular PARylation inhibition, high-content imaging, PARP1-KO; type: cell-based
PARP2 = molecular target: T4, PARP2 (Homo sapiens, UniProt Q9UGN5); assay: PARP2-DNA trapping, fluorescence polarization (FP); type: biochemical
T4 construct: purchased BPS 80502
T4 sequence (Q9UGN5 whole entry): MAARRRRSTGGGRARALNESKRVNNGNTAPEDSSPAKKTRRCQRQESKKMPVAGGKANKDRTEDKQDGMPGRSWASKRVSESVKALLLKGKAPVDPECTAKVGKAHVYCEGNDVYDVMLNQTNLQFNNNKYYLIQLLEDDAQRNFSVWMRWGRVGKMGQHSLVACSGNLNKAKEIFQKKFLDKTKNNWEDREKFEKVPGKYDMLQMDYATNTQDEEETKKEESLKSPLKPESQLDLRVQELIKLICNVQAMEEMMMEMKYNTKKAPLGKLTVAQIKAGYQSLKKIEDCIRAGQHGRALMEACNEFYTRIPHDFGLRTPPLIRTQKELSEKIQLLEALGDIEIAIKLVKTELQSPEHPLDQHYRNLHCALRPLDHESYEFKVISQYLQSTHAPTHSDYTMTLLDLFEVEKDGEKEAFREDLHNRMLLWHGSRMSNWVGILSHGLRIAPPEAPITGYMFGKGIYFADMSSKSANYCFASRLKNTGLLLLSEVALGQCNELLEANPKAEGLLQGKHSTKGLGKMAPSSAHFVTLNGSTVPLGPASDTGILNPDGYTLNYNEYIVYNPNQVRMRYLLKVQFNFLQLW

PARP1 [3] = molecular target: T2, PARP1; assay: DNA trapping capability of PARP1 (HTRF); type: biochemical
PARP3 = molecular target: T5, PARP3 (Homo sapiens, UniProt Q9Y6F1); assay: Inhibition of PARP3 enzyme activity (chemiluminescence); type: biochemical
T5 construct: purchased BPS 80503
T5 sequence (Q9Y6F1 1-533): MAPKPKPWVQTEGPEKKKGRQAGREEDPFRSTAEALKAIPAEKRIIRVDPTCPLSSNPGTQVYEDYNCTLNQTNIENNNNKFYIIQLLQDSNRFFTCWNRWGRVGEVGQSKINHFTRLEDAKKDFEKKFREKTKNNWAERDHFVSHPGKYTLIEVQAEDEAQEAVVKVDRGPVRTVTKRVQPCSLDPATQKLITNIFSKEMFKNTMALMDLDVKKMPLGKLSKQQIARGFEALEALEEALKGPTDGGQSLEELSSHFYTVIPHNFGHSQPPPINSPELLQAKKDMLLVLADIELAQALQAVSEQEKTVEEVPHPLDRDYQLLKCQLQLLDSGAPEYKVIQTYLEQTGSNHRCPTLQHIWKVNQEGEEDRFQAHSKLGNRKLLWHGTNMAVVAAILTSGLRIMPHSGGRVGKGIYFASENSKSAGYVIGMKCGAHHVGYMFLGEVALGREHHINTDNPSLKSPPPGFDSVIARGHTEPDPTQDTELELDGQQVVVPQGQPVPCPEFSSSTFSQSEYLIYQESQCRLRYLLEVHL

[4] = ratio relative to the PARP1 enzyme activity

With `[2H]C([2H])([2H])NC(=O)c1ccc(N2CCN(Cc3cnc4c(N)c(CC)c(=O)[nH]c4c3)CC2)c(F)n1` [Example 4, 5-(4-((8-Amino-7-ethyl-6-oxo-5,6-dihydro-1,5-naphthyridin-3-yl)methyl)piperazin-1-yl)-6-fluoro-N-(methyl-d3)picolinamide] the IC50 (PARP7; enzyme activity) was greater than 10000 nM, the “PARP7 multiple vs PARP1” value (PARP7; [4]) was “∞” and the “capability to induce PARP1-DNA trapping higher than that of Olaparib” value (PARP1 [1]; 2-hour time point, relative to Olaparib) was 48 fold. For the same compound, the “PARP1-DNA trapping activity stronger than that of AZD5305” value (PARP1 [1]; 54-hour time point, relative to AZD5305) was 14 fold, the “time over which PARP1-DNA trapping activity could be maintained” value (PARP1 [1]; FP, PARP1) was “more than 54 hours” and the Bottom (PARP1 [1]; PARP1, 0.25 hour) was -8.7. It also gave an EC50 (PARP1 [1]; PARP1, 0.25 hour) of 3.11 nM, a Hillslope (PARP1 [1]; PARP1, 0.25 hour) of 2.8 and a Top (PARP1 [1]; PARP1, 0.25 hour) of 108.7. For the same compound, the Bottom (PARP1 [1]; PARP1, 0.5 hour) was -6.3, the EC50 (PARP1 [1]; PARP1, 0.5 hour) was 2.26 nM and the Hillslope (PARP1 [1]; PARP1, 0.5 hour) was 2.9. It also gave a Top (PARP1 [1]; PARP1, 0.5 hour) of 105.6, a Bottom (PARP1 [1]; PARP1, 1 hour) of -4.2 and an EC50 (PARP1 [1]; PARP1, 1 hour) of 2.58 nM. For the same compound, the Hillslope (PARP1 [1]; PARP1, 1 hour) was 3.1, the Top (PARP1 [1]; PARP1, 1 hour) was 109.1 and the Bottom (PARP1 [1]; PARP1, 2 hour) was -0.8. It also gave an EC50 (PARP1 [1]; PARP1, 2 hour) of 2.86 nM, a Hillslope (PARP1 [1]; PARP1, 2 hour) of 3.0 and a Top (PARP1 [1]; PARP1, 2 hour) of 105.3. It also gave a Bottom (PARP1 [1]; PARP1, 4 hour) of -5.6, an EC50 (PARP1 [1]; PARP1, 4 hour) of 2.99 nM and a Hillslope (PARP1 [1]; PARP1, 4 hour) of 2.4. It also gave a Top (PARP1 [1]; PARP1, 4 hour) of 106.8, a Bottom (PARP1 [1]; PARP1, 8 hour) of -6.8 and an EC50 (PARP1 [1]; PARP1, 8 hour) of 3.51 nM. It also gave a Hillslope (PARP1 [1]; PARP1, 8 hour) of 2.6, a Top (PARP1 [1]; PARP1, 8 hour) of 107.2 and a Bottom (PARP1 [1]; PARP1, 24 hour) of -4.4. It also gave an EC50 (PARP1 [1]; PARP1, 24 hour) of 3.97 nM, a Hillslope (PARP1 [1]; PARP1, 24 hour) of 1.5 and a Top (PARP1 [1]; PARP1, 24 hour) of 79.2. It also gave a Bottom (PARP1 [1]; PARP1, 30 hour) of -8.8, an EC50 (PARP1 [1]; PARP1, 30 hour) of 5.46 nM and a Hillslope (PARP1 [1]; PARP1, 30 hour) of 1.2. The Top (PARP1 [1]; PARP1, 30 hour) was 79.1, the Bottom (PARP1 [1]; PARP1, 48 hour) was -5.6 and the EC50 (PARP1 [1]; PARP1, 48 hour) was 4.58 nM. The Hillslope (PARP1 [1]; PARP1, 48 hour) was 2.0, the Top (PARP1 [1]; PARP1, 48 hour) was 51.0 and the Bottom (PARP1 [1]; PARP1, 54 hour) was -12.8. The EC50 (PARP1 [1]; PARP1, 54 hour) was 9.54 nM, the Hillslope (PARP1 [1]; PARP1, 54 hour) was 0.8 and the Top (PARP1 [1]; PARP1, 54 hour) was 55.9. It also gave an IC50 (PARP1 [2]) of 0.48 nM, a PARP1/2 selectivity fold (PARP1 [2]; PARP2 vs PARP1) of 39 fold and an IC50 (PARP5a; enzyme activity) of 4060 nM. The “PARP5a multiple vs PARP1” value (PARP5a; [4]) was 8,467, the “inhibition on the enzyme activity at the highest concentration” value (A549 PARP1-KO cell lines; A549 PARP1-KO cell lines, 40 µM) was “no detectable inhibition” and the IC50 (A549 PARP1-KO cell lines; Homo sapiens, A549, PARylation at the cellular level) was greater than 40000 nM. It also gave a Bottom (PARP2; PARP2, 0.25 hour) of 4.3, an EC50 (PARP2; PARP2, 0.25 hour) of 2330 nM and a Hillslope (PARP2; PARP2, 0.25 hour) of 1.4. For the same compound, the Top (PARP2; PARP2, 0.25 hour) was “= 100.0”, the Bottom (PARP2; PARP2, 0.5 hour) was 1.0 and the EC50 (PARP2; PARP2, 0.5 hour) was 5470 nM. For the same compound, the Hillslope (PARP2; PARP2, 0.5 hour) was 1.9, the Top (PARP2; PARP2, 0.5 hour) was “= 100.0” and the Bottom (PARP2; PARP2, 1 hour) was 0.8. For the same compound, the EC50 (PARP2; PARP2, 1 hour) was greater than 10000 nM, the Hillslope (PARP2; PARP2, 1 hour) was 2.1 and the Top (PARP2; PARP2, 1 hour) was “= 100.0”. The EC50 (PARP2; PARP2, 2 hour) was greater than 10000 nM, the EC50 (PARP2; PARP2, 4 hour) was greater than 10000 nM and the EC50 (PARP2; PARP2, 8 hour) was greater than 10000 nM. It also gave an EC50 (PARP2; PARP2, 24 hour) greater than 10000 nM, an EC50 (PARP2; PARP2, 48 hour) greater than 10000 nM and an EC50 (PARP1 [3]) of 3.8 nM. For the same compound, the IC50 (PARP3; enzyme activity) was 7650 nM and the “PARP3 multiple vs PARP1” value (PARP3; [4]) was 15,929.
